Experimental data from US10647713B2 (Nimbus Lakshmi, Inc., priority 2016, dated 2020).

Target: human TYK2 (JH2domain-pseudokinase) (Homo sapiens (Human), UniProt P29597)
Assay: TYK2 JH2 Domain Binding Assay (KINOMEscan, DiscoveRx)
Conditions: 11-point dilution, duplicate
Outline: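 Kd from duplicate 11-point 3-fold dilutions starting at 30,000 nM, fitted by Hill equation with slope fixed at −1. Compounds (final 0.9% DMSO) displace DNA-tagged HEK293-expressed TYK2 JH2 fusion (<0.1 nM) from ligand-coated beads over 1 h at room temperature; eluted kinase read by qPCR.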

Chain of human TYK2 (JH2domain-pseudokinase) (P29597 556-888): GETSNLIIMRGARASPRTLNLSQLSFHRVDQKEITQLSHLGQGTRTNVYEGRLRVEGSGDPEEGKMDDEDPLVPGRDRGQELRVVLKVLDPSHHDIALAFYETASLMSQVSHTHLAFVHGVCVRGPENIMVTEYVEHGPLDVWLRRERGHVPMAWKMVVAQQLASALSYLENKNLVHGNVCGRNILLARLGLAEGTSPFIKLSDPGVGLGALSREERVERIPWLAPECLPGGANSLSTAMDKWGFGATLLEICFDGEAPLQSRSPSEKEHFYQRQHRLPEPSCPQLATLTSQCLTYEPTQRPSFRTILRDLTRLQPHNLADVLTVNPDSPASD

Row | SMILES | Kd
1 | CS(=O)(=O)c1cc([C@@H]2CCCOC2)ccc1Nc1cc(NC(=O)[C@@H]2CC2(F)F)nc2[nH]c(C(F)F)nc12 [I-438, (S)—N-(2-(difluoromethyl)-7-((2-(methylsulfonyl)-4-((S)-tetrahydro-2H-pyran-3-yl)phenyl)amino)-3H-imidazo[4,5-b]pyridin-5-yl)-2,2-difluorocyclopropane-1-carboxamide] | 1 to 10 nM
2 | CS(=O)(=O)c1cc([C@@H]2CCCOC2)ccc1Nc1cc(NC(=O)[C@H]2CC2(F)F)nc2[nH]c(C(F)F)nc12 [I-439, (R)—N-(2-(difluoromethyl)-7-((2-(methylsulfonyl)-4-((S)-tetrahydro-2H-pyran-3-yl)phenyl)amino)-3H-imidazo[4,5-b]pyridin-5-yl)-2,2-difluorocyclopropane-1-carboxamide] | 1 to 10 nM
3 | COc1c(Nc2cc(NC(=O)[C@H]3C[C@H]3F)nc3[nH]c(C(F)F)nc23)cccc1-c1ncn(C)n1 [I-440, (1R,2R)—N-(2-(difluoromethyl)-7-((2-methoxy-3-(1-methyl-1H-1,2,4-triazol-3-yl)phenyl)amino)-3H-imidazo[4,5-b]pyridin-5-yl)-2-fluorocyclopropane-1-carboxamide] | 0.1 to 0.5 nM
4 | Cc1nc2c(Nc3ccccc3[S@+](C)[O-])cc(NC(=O)C3CC3)nc2[nH]1 [I-441, (S)—N-(2-methyl-7-((2-(methylsulfinyl)phenyl)amino)-3H-imidazo[4,5-b]pyridin-5-yl)cyclopropanecarboxamide] | 1 to 10 nM
5 | Cc1nc2c(Nc3ccccc3[S@@+](C)[O-])cc(NC(=O)C3CC3)nc2[nH]1 [I-442, (R)—N-(2-methyl-7-((2-(methylsulfinyl)phenyl)amino)-3H-imidazo[4,5-b]pyridin-5-yl)cyclopropanecarboxamide] | > 10 nM
6 | Cc1nc2c(Nc3ccc(F)cc3S(C)(=O)=O)cc(NC(=O)C3CC3)nc2[nH]1 [I-443, N-(7-((4-fluoro-2-(methylsulfonyl)phenyl)amino)-2-methyl-3H-imidazo[4,5-b]pyridin-5-yl)cyclopropanecarboxamide] | 0.1 to 0.5 nM
7 | CP(C)(=O)c1cc(C2CCC2)ccc1Nc1cc(NC(=O)C2CC2)nc2[nH]c(C(F)F)nc12 [I-444, N-(7-((4-cyclobutyl-2-(dimethylphosphoryl)phenyl)amino)-2-(difluoromethyl)-3H-imidazo[4,5-b]pyridin-5-yl)cyclopropane carboxamide] | 0.1 to 0.5 nM
8 | Cc1nc2c(Nc3ccc(C4CCC4)cc3P(C)(C)=O)cc(NC(=O)C3CC3)nc2[nH]1 [I-445, N-(7-((4-cyclobutyl-2-(dimethylphosphoryl)phenyl)amino)-2-methyl-3H-imidazo[4,5-b]pyridin-5-yl)cyclopropanecarboxamide] | 0.1 to 0.5 nM
9 | Cc1nn(C)c(C)c1-c1ccc(Nc2cc(NC(=O)C3CC3)nc3[nH]c(C(F)F)nc23)c(S(C)(=O)=O)c1 [I-446, N-(2-(difluoromethyl)-7-((2-(methylsulfonyl)-4-(1,3,5-trimethyl-1H-pyrazol-4-yl)phenyl)amino)-3H-imidazo[4,5-b]pyridin-5-yl)cyclopropanecarboxamide] | 0.1 to 0.5 nM
10 | Cc1nc2c(Nc3ccc(-c4c(C)nn(C)c4C)cc3S(C)(=O)=O)cc(NC(=O)C3CC3)nc2[nH]1 [I-447, N-(2-methyl-7-((2-(methylsulfonyl)-4-(1,3,5-trimethyl-1H-pyrazol-4-yl)phenyl)amino)-3H-imidazo[4,5-b]pyridin-5-yl)cyclopropanecarboxamide] | 0.1 to 0.5 nM
11 | [2H]C([2H])([2H])S(=O)(=O)N(C)c1ccccc1Nc1cc(Nc2cc(C)nc(C)n2)nc2[nH]c(C(F)F)nc12 [I-448, N-(2-((2-(difluoromethyl)-5-((2,6-dimethylpyrimidin-4-yl)amino)-3H-imidazo[4,5-b]pyridin-7-yl)amino)phenyl)-N-methylmethanesulfonamide-d3] | 0.1 to 0.5 nM
12 | Cc1nc2c(Nc3ccc(-c4nn(C)cc4C)cc3S(C)(=O)=O)cc(Nc3cnc(C)c(C)n3)nc2[nH]1 [I-449, N7-(4-(1,4-dimethyl-1H-pyrazol-3-yl)-2-(methylsulfonyl)phenyl)-N5-(5,6-dimethylpyrazin-2-yl)-2-methyl-3H-imidazo[4,5-b]pyridine-5,7-diamine] | 0.1 to 0.5 nM
13 | Cc1cn(C)c(-c2ccc(Nc3cc(NC(=O)C4CC4)nc4[nH]c(C(F)F)nc34)c(S(C)(=O)=O)c2)n1 [I-450, N-(2-(difluoromethyl)-7-((4-(1,4-dimethyl-1H-imidazol-2-yl)-2-(methylsulfonyl)phenyl)amino)-3H-imidazo[4,5-b]pyridin-5-yl)cyclopropanecarboxamide] | 0.1 to 0.5 nM
14 | Cc1cnc(-c2ccc(Nc3cc(NC(=O)C4CC4)nc4[nH]c(C(F)F)nc34)c(S(C)(=O)=O)c2)n1C [I-451, N-(2-(difluoromethyl)-7-((4-(1,5-dimethyl-1H-imidazol-2-yl)-2-(methylsulfonyl)phenyl)amino)-3H-imidazo[4,5-b]pyridin-5-yl)cyclopropaneCarboxamide] | 0.1 to 0.5 nM
15 | CS(=O)(=O)c1cc([C@@H]2CCOC2)ccc1Nc1cc(NC(=O)C2CC2)nc2[nH]c(C(F)F)nc12 [I-452, (S)—N-(2-(difluoromethyl)-7-((2-(methylsulfonyl)-4-(tetrahydrofuran-3-yl)phenyl)amino)-3H-imidazo[4,5-b]pyridin-5-yl)cyclopropanecarboxamide] | 0.5 to 1 nM
16 | CS(=O)(=O)c1cc([C@H]2CCOC2)ccc1Nc1cc(NC(=O)C2CC2)nc2[nH]c(C(F)F)nc12 [I-453, (R)—N-(2-(difluoromethyl)-7-((2-(methylsulfonyl)-4-(tetrahydrofuran-3-yl)phenyl)amino)-3H-imidazo[4,5-b]pyridin-5-yl)cyclopropanecarboxamide] | 0.1 to 0.5 nM
17 | CO[C@H](C)c1ccc(Nc2cc(NC(=O)C3CC3)nc3[nH]c(C(F)F)nc23)c(S(C)(=O)=O)c1 [I-454, (R)—N-(2-(difluoromethyl)-7-((4-(1-methoxyethyl)-2-(methylsulfonyl)phenyl)amino)-3H-imidazo[4,5-b]pyridin-5-yl)cyclopropanecarboxamide] | 0.5 to 1 nM
18 | CO[C@@H](C)c1ccc(Nc2cc(NC(=O)C3CC3)nc3[nH]c(C(F)F)nc23)c(S(C)(=O)=O)c1 [I-455, (S)—N-(2-(difluoromethyl)-7-((4-(1-methoxyethyl)-2-(methylsulfonyl)phenyl)amino)-3H-imidazo[4,5-b]pyridin-5-yl)cyclopropanecarboxamide] | 1 to 10 nM
19 | [2H]C([2H])([2H])S(=O)(=O)N(C)c1ccccc1Nc1cc(Nc2cc(C)nc(C)n2)nc2[nH]c(C)nc12 [I-456, N-(2-((5-((2,6-dimethylpyrimidin-4-yl)amino)-2-methyl-3H-imidazo[4,5-b]pyridin-7-yl)amino)phenyl)-N-methylmethanesulfonamide-d3] | 0.1 to 0.5 nM
20 | [2H]C([2H])([2H])N(c1ccccc1Nc1cc(Nc2cc(C)nc(C)n2)nc2[nH]c(C(F)F)nc12)S(=O)(=O)C([2H])([2H])[2H] [I-457, N-(2-((2-(difluoromethyl)-5-((2,6-dimethylpyrimidin-4-yl)amino)-3H-imidazo[4,5-b]pyridin-7-yl)amino)phenyl)-N-(methyl-d3)methanesulfonamide-d3] | 0.1 to 0.5 nM
21 | [2H]C([2H])([2H])N(c1ccccc1Nc1cc(Nc2cc(C)nc(C)n2)nc2[nH]c(C)nc12)S(=O)(=O)C([2H])([2H])[2H] [I-458, N-(2-((5-((2,6-dimethylpyrimidin-4-yl)amino)-2-methyl-3H-imidazo[4,5-b]pyridin-7-yl)amino)phenyl)-N-(methyl-d3)methanesulfonamide-d3] | 0.1 to 0.5 nM
22 | Cc1cn(C)nc1-c1ccc(Nc2cc(NC(=O)[C@@H]3CC3(C)C)nc3[nH]c(C(F)F)nc23)c(S(C)(=O)=O)c1 [I-459, (R)—N-(2-(difluoromethyl)-7-((4-(1,4-dimethyl-1H-pyrazol-3-yl)-2-(methylsulfonyl)phenyl)amino)-3H-imidazo[4,5-b]pyridin-5-yl)-2,2-dimethylcyclopropane-1-carboxamide] | 1 to 10 nM
23 | Cc1cn(C)nc1-c1ccc(Nc2cc(NC(=O)[C@H]3CC3(C)C)nc3[nH]c(C(F)F)nc23)c(S(C)(=O)=O)c1 [I-460, (S)—N-(2-(difluoromethyl)-7-((4-(1,4-dimethyl-1H-pyrazol-3-yl)-2-(methylsulfonyl)phenyl)amino)-3H-imidazo[4,5-b]pyridin-5-yl)-2,2-dimethylcyclopropane-1-carboxamide] | 1 to 10 nM
24 | Cc1cn(C)c(-c2ccc(Nc3cc(NC(=O)C4CC4)nc4[nH]c(C)nc34)c(S(C)(=O)=O)c2)n1 [I-461, N-(7-((4-(1,4-dimethyl-1H-imidazol-2-yl)-2-(methylsulfonyl)phenyl)amino)-2-methyl-3H-imidazo[4,5-b]pyridin-5-yl)cyclopropanecarboxamide] | 0.1 to 0.5 nM
25 | Cc1nc2c(Nc3ccc(-c4ncc(C)n4C)cc3S(C)(=O)=O)cc(NC(=O)C3CC3)nc2[nH]1 [I-462, N-(7-((4-(1,5-dimethyl-1H-imidazol-2-yl)-2-(methylsulfonyl)phenyl)amino)-2-methyl-3H-imidazo[4,5-b]pyridin-5-yl)cyclopropanecarboxamide] | 0.1 to 0.5 nM
26 | Cc1csc(-c2ccc(Nc3cc(Nc4cnc(C)c(C)n4)nc4[nH]c(C(F)F)nc34)c(S(C)(=O)=O)c2)n1 [I-463, 2-(difluoromethyl)-N5-(5,6-dimethylpyrazin-2-yl)-N7-(2-(methylsulfonyl)-4-(4-methylthiazol-2-yl)phenyl)-3H-imidazo[4,5-b]pyridine-5,7-diamine] | 1 to 10 nM
27 | Cc1csc(-c2ccc(Nc3cc(Nc4cnc(C)c(C)n4)nc4[nH]c(C)nc34)c(S(C)(=O)=O)c2)n1 [I-464, N5-(5,6-dimethylpyrazin-2-yl)-2-methyl-N7-(2-(methylsulfonyl)-4-(4-methylthiazol-2-yl)phenyl)-3H-imidazo[4,5-b]pyridine-5,7-diamine] | 0.5 to 1 nM
28 | Cc1nc2c(Nc3ccc(-c4nc(C)c(C)s4)cc3S(C)(=O)=O)cc(Nc3cnc(C)c(C)n3)nc2[nH]1 [I-466, N5-(5,6-dimethylpyrazin-2-yl)-N7-(4-(4,5-dimethylthiazol-2-yl)-2-(methylsulfonyl)phenyl)-2-methyl-3H-imidazo[4,5-b]pyridine-5,7-diamine] | 0.5 to 1 nM
